Experimental data: patent US11541050B2, “Pyrimidine derivatives for the treatment of viral infections” (JANSSEN SCIENCES IRELAND UC, priority 2011, dated 2023)

Experiments:
[1] = target: T1, human TLR8 (wild type sequence) (Homo sapiens, UniProt Q9NR97); test: TLR8 cellular NFκB-luc reporter assay, wild type TLR8; assay type: cell-based; set-up: unit not given here; details: lowest effective concentration; for TLR 8 wt LEC: wild type TLR8 (compounds 74 onward)
T1 construct: expressed in transfected cells; host or cells: HEK293
T1 sequence (Q9NR97 27-1041): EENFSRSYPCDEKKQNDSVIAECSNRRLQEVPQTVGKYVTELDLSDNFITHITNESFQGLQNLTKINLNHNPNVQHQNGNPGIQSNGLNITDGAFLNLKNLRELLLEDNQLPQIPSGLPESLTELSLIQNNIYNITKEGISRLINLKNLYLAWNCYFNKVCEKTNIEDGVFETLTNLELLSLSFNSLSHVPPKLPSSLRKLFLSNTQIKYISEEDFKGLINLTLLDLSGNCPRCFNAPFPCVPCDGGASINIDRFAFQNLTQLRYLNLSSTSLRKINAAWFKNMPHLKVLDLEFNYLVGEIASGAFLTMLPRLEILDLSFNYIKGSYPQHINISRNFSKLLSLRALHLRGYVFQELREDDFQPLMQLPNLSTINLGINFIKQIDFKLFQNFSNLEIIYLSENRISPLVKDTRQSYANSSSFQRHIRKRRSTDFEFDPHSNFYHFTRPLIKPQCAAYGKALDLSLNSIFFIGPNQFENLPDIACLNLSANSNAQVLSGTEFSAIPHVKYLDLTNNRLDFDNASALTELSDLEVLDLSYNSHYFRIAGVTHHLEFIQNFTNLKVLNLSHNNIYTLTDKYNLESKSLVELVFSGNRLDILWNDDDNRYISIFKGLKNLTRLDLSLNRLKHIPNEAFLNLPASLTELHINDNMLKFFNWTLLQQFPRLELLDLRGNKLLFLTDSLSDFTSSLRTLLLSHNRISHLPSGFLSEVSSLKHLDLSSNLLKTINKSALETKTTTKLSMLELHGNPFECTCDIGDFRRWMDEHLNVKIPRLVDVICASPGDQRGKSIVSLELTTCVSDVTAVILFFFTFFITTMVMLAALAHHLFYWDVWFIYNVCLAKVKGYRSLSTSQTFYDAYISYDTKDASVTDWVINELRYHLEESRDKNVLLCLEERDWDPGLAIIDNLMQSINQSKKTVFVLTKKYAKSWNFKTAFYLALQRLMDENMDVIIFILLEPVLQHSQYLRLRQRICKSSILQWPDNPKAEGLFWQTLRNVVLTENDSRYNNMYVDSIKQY
Summary of the method: (§1)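 Luciferase signal read after 6 h compound incubation at 37 °C in HEK293 cells carrying transiently transfected TLR7 or TLR8 (wild type or LRR2-deletion) and NFκB-luc. Values are lowest effective concentrations from quadruplicate dose-response curves, effect ≥2-fold above assay SD.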

[2] = target: T2, human TLR7 (wild type sequence) (Homo sapiens, UniProt Q9NYK1); test: TLR7 cellular NFκB-luc reporter assay, wild type TLR7; assay type: cell-based; set-up: unit not given here; details: lowest effective concentration; for TLR7-wt_LEC: wild type TLR7; for TLR 7 wt LEC: wild type TLR7 (compounds 74 onward)
T2 construct: expressed in transfected cells; host or cells: HEK293
T2 sequence (Q9NYK1 27-1049): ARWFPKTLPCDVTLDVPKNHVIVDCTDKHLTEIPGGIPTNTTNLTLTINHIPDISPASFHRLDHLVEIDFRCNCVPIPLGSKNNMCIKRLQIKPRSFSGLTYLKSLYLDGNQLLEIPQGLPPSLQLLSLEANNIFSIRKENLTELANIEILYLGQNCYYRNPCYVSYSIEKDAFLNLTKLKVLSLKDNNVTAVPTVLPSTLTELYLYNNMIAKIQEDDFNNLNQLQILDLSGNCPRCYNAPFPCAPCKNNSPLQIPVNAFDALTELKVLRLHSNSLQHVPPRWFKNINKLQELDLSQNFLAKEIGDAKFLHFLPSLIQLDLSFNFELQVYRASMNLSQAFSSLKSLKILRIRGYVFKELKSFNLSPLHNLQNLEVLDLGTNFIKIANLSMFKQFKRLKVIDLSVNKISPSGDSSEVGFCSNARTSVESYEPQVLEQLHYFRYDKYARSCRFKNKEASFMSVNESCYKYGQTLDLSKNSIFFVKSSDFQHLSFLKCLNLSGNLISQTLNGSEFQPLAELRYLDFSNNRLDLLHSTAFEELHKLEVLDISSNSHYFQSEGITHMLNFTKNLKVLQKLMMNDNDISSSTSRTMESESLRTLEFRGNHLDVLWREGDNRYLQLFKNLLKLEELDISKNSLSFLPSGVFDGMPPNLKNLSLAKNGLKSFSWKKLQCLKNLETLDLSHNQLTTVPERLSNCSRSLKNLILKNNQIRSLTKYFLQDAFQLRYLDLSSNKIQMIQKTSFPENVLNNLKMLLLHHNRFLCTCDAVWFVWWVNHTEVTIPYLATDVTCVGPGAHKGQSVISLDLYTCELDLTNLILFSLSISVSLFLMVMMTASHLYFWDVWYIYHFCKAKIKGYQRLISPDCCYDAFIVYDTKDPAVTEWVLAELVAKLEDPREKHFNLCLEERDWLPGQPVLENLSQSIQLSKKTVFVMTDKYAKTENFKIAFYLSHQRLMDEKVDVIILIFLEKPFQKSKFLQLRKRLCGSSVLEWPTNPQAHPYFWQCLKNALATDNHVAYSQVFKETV
Summary of the method: as §1

[3] = system: human TLR7 mutant sequence comprising a deletion in the second leucine-rich repeat; test: TLR7 cellular NFκB-luc reporter assay, mutant TLR7 with deletion in the second leucine-rich repeat; assay type: cell-based; set-up: unit not given here; details: lowest effective concentration
Experimental: The ability of compounds to activate human TLR7 and/or TLR8 was assessed in a cellular reporter assay using HEK293 cells transiently transfected with a TLR7 or TLR8 expression vector and NFκB-luc reporter construct. In one instance the TLR expression construct expresses the respective wild type sequence or a mutant sequence comprising a deletion in the second leucine-rich repeat of the TLR.
Briefly, HEK293 cells were grown in culture medium (DMEM supplemented with 10% FCS and 2 mM Glutamine). For transfection of cells in 10 cm dishes, cells were detached with Trypsin-EDTA, transfected with a mix of CMV-TLR7 or TLR8 plasmid (750 ng), NFκB-luc plasmid (375 ng) and a transfection reagent and incubated for 48 hours at 37° C. in a humidified 5% CO2 atmosphere. […] Thirty microliters of cells were then dispensed into each well in 384-well plates, where 10 μL of compound in 4% DMSO was already present. Following 6 hours incubation at 37° C., 5% CO2, the luciferase activity was determined by adding 15 μl of Steady Lite Plus substrate (Perkin Elmer) to each well and readout performed on a ViewLux ultraHTS microplate imager (Perkin Elmer). Dose response curves were generated from measurements performed in quadruplicates.

[4] = system: HCV replicon in Huh-7 luc/neo cells; test: Suppression of HCV replicon replication by conditioned media from compound-treated PBMC; assay type: cell-based, HCV type 1 b; details: Hepatitis C virus; conditioned media from compound-treated PBMC on Huh-7 luc/neo replicon cells (compounds 74 onward); read-out: PBMC HUH-7 EC50
Summary of the method: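 Readout is firefly luciferase from an HCV genotype 1b NS3-NS5B bicistronic replicon in Huh-7 cells, measured 24 h after adding conditioned medium. That medium came from overnight culture of compound-treated PBMC (2×10^5/well, human AB serum, at least two donors). Interferon α-2a was the reference.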

| Compound | TLR8-wt_LEC [1] | TLR7-wt_LEC [2] | TLR7-dIRR2_LEC [3] | TLR 8 wt LEC [1] | EC50 [4] [nM] | TLR 7 wt LEC [2] |
| --- | --- | --- | --- | --- | --- | --- |
| CCCCNc1nc(N)ncc1OCC1(C)COC1 [Compound 206] | >23.81 | >25 | 9.450 |  |  |  |
| CCCC[C@@H](CCO)Nc1nc(N)ncc1OCc1nccc2ccccc12 [Compound 208] |  | 0.001 | 0.093 |  |  |  |
| CCC[C@@H](CO)Nc1nc(N)ncc1OCc1cccc(C)n1 [Compound 202] | 0.049 | 0.164 | 0.089 |  |  |  |
| CCCCNc1nc(N)ncc1OCc1ccc(C#N)cc1 [Compound 210] | 0.237 | 0.686 | 0.896 |  |  |  |
| CCCC[C@@H](CO)Nc1nc(N)ncc1OCc1ccc2ccccc2n1 [Compound 198] | 0.089 | 0.076 | 0.511 |  |  |  |
| CCCC[C@@H](CO)Nc1nc(N)ncc1OCCCc1ccc(OC)cc1 [Compound 201] | 0.758 | 0.566 | 0.647 |  |  |  |
| CCC[C@@H](CO)Nc1nc(N)ncc1OCCCc1ccc2c(c1)OCO2 [Compound 204] | 0.493 | 0.791 | 0.791 |  |  |  |
| CCCC[C@@H](CCO)Nc1nc(N)ncc1OCc1cn2ccccc2n1 [Compound 207] | 0.063 | 0.177 | 1.450 |  |  |  |
| CCCC[C@@H](CO)Nc1nc(N)ncc1OCCOC [Compound 197] | 0.767 | 2.650 | 0.624 |  |  |  |
| CCC[C@@H](CO)Nc1nc(N)ncc1OCCOC [Compound 196] | 0.687 | 1.900 | 0.469 |  |  |  |
| CCCCNc1nc(N)ncc1OCCOc1cc(OC)cc(OC)c1 [Compound 129] |  |  |  | 3.250 | 432 | 2.090 |
| CCCC[C@@H](CO)Nc1nc(N)ncc1OCc1ncc(C)c(OC)c1C [Compound 194] |  |  |  | 0.164 | 19 | 0.031 |
| CCCCNc1nc(N)ncc1OCc1cccc(C(=O)c2ccccc2)c1 [Compound 103] |  |  |  | 1.270 | 725 | 1.190 |
| CCCCNc1nc(N)ncc1OCc1cccc(CC(=O)OC)c1 [Compound 137] |  |  |  | 1.760 | 22800 | 0.757 |
| CCCCNc1nc(N)ncc1OCCCc1ccccc1Br [Compound 108] |  |  |  | >25 | 6770 | 6.580 |
| CCCCNc1nc(N)ncc1OCc1c(C)noc1-c1ccccc1 [Compound 118] |  |  |  | 3.710 | 976 | 1.670 |

| Compound | TLR8-wt_LEC [1] | TLR7-wt_LEC [2] | TLR7-dIRR2_LEC [3] | TLR 8 wt LEC [1] | EC50 [4] [nM] | TLR 7 wt LEC [2] |
| --- | --- | --- | --- | --- | --- | --- |
| CCCCNc1nc(N)ncc1OCc1cccc(C(N)=O)n1 [Compound 176] |  |  |  | 0.463 | 173 | 0.868 |
| CCCCNc1nc(N)ncc1OCCCc1cccc(OC)c1 [Compound 146] |  |  |  | 2.300 | 707 | 1.230 |
| CCCCNc1nc(N)ncc1OCc1cc(OC2CCCC2)c(OC)cn1 [Compound 173] |  |  |  | 2.550 | 86 | 0.222 |
| CCCCNc1nc(N)ncc1OCCOc1cccc(OC)c1OC [Compound 130] |  |  |  | 6.560 | 103 | 0.676 |
| CCC[C@@H](CCO)Nc1nc(N)ncc1OCc1nccc(OC)c1OC [Compound 87] |  |  |  | 0.567 | 12 | 0.013 |
| CCCCNc1nc(N)ncc1OCCCc1cc(OC)c(OC)cc1OC [Compound 161] |  |  |  | 3.480 | 629 | 0.672 |
| CCCCNc1nc(N)ncc1OCCCc1cc(OC)cc(OC)c1 [Compound 147] |  |  |  | 4.340 | 746 | 2.520 |
| C=CC[C@H](CCCC)Nc1nc(N)ncc1OC [Compound 292] |  | 0.913 | 3.082 |  |  |  |
| CCCCNc1nc(N)ncc1OCc1cc2ccccc2cn1 [Compound 166] |  |  |  | 0.980 | 46 | 0.128 |
| CCCC[C@H](CCO)Nc1nc(N)ncc1OCc1ccccc1 [Compound 145] |  |  |  | 1.920 | 632 | 2.140 |
| CCCC[C@@H](CCO)Nc1nc(N)ncc1OCc1ncc(C)c(OC)c1C [Compound 75] |  |  |  | 0.218 | 7 | 0.023 |
| CCCCNc1nc(N)ncc1OCc1ccc(C(F)(F)F)o1 [Compound 119] |  |  |  | 6.120 | 193 | 1.720 |
| CCCCNc1nc(N)ncc1OCCCc1ccc(OC)c(OC)c1 [Compound 74] |  |  |  | 1.720 | 157 | 0.713 |
| CCCCNc1nc(N)ncc1OCc1ccc(F)cc1 [Compound 95] |  |  |  | 2.010 | 726 | 2.730 |
| CCCCNc1nc(N)ncc1OCCOc1cccc(OC)c1 [Compound 127] |  |  |  | 2.050 | 256 | 1.030 |
| CCC[C@@H](CCO)Nc1nc(N)ncc1OCc1ccc2ccccc2n1 [Compound 188] |  |  |  | 0.530 | 86 | 0.237 |
